# Patent US11680047B2, “Enhanced erythropoiesis and iron metabolism” (FibroGen, Inc., priority 2003, dated 2023)
# Legend:
# NRAMP2 = NRAMP2 mRNA in small intestine of mice after IV administration (microarray); format: in vivo, mouse; conditions: 60 mg/kg IV, 4 hours
# Experimental: In another experiment, mRNA was isolated from small intestine harvested 4 hours following IV administration of 60 mg/kg compound A, compound B, and compound C to mice. Probes were prepared from each of two animals from 5 treatment groups, and hybridized to Affymetrix mouse MOE430Aplus2 microarrays (one animal per array). Statistical comparisons of data obtained from arrays from treated versus non-treated animals was performed. […] Expression levels are shown as fold-induction over control, untreated animals for each expressed gene.
# E-selectin [1] = assay: Cell surface E-selectin (cell-based ELISA) in HUVEC pretreated with compound, then cytokines; set-up: species or system human; conditions: HUVEC pretreated 24 hours
# Experimental: HUVEC were treated with vehicle control or various concentrations of compound B or compound C for 24 hours. Cells were washed and then stimulated with either 1 ng/ml TNF-α, 1 ng/ml IL-1β, or a combination of 1 ng/ml each of TNF-α, IL-1β, and IFN-γ for 4 hours. Cell surface expression of E-selectin was measured by cell-based ELISA.
# VCAM-1 [2] = assay: TNF-α induced VCAM-1 expression in HUVEC; format: cell-based, human; conditions: TNF-α 1 ng/ml, 1 day
# Description: Endothelial cell adhesiveness for lymphocytes occurs, in part, by endothelial cell expression of vascular cell adhesion molecule (VCAM)-1. VCAM-1 expression in endothelial cells is induced by various inflammatory cytokines, such as TNF-α. To investigate the effect of HIF prolyl hydroxylase inhibition on TNF-α induced VCAM-1 expression, HUVEC (human umbilical vein endothelial cells) were stimulated with TNF-α in the absence or presence of various concentrations of compound B or compound C for 1 day. VCAM expression was then measured.
# (§1) Endothelial E-selectin belongs to the selectin family of cellular adhesion molecules mediating the initial attachment of leukocytes to vascular endothelial cells in inflammatory events. IL-1β, TNF-α, and lipopolysaccharides each induce the expression of E-selectin. (See, e.g., Bevilacqua et al. (1987) Proc Natl Acad Sci USA 84:9238-9242 and Bevilacqua and van Furth (1993) J Leukoc Biol 54:363-378.) To investigate the effect of HIF prolyl hydroxylase inhibition on TNF-α induced E-selectin expression, HUVECs were stimulated with 1 ng/ml TNF-α in the absence or presence of various concentrations of compound B or compound C for 1 day. E-selectin and VCAM expression were then measured.
# E-selectin [3] = assay: IL-1β induced E-selectin expression in HUVEC; format: cell-based, human; conditions: 1 ng/ml IL-1β, 1 day
# Experimental: To investigate the effect of HIF prolyl hydroxylase inhibition on IL-1β induced E-selectin expression, HUVECs were stimulated with 1 ng/ml IL-1β in the absence or presence of various concentrations of compound B or compound C for 1 day. E-selectin expression was then measured.
# E-selectin [4] = assay: TNF-α induced E-selectin expression in HUVEC; format: cell-based, human; conditions: 1 ng/ml TNF-α, various concentrations, 1 day
# Description: as §1
# VCAM-1 [5] = assay: IL-1β induced VCAM-1 expression in HUVEC; format: cell-based, human; conditions: IL-1β 1 ng/ml, 1 day
# Experimental: To investigate the effect of HIF prolyl hydroxylase inhibition on IL-1β induced VCAM-1 expression, HUVEC (human umbilical vein endothelial cells) were stimulated with IL-1β in the absence or presence of various concentrations of compound B or compound C for 1 day. VCAM expression was then measured.
# Ceruloplasmin (CP) = assay: Microarray gene expression in Hep3B cells: ceruloplasmin; format: cell-based, human; conditions: 2 μM, 6 hr
# Experimental: Hep3B cells (ATCC No. HB-8064) were grown in DMEM containing 8% fetal bovine serum. Hep3B cells were seeded into 6-well culture dishes at ˜500,000 cells per well. After 8 hours, the media was changed to DMEM containing 0.5% fetal bovine serum and the cells were incubated for an additional 16 hours. Compound B or compound D was added to the cells (2 μM final concentration) and the cells were incubated for various times. Control cells (no compound treatment, addition of DMSO alone) were harvested at 0, 6 and 48 hours. Harvested cells were assessed for cell viability (GUAVA), or added to RNA extraction buffer (RNeasy, Qiagen) and stored at −20° C. for subsequent RNA purification. Replicate microarrays were generated using RNA isolated from replicate experiments conducted on different days. Total RNA was isolated from cells using the RNeasy kit (Qiagen).
# RNA was precipitated in 0.3 M sodium acetate (pH 5.2), 50 ng/ml glycogen, and 2.5 volumes of ethanol for one hour at −20° C. Samples were centrifuged and pellets were washed with cold 80% ethanol, dried, and resuspend in water. Double stranded cDNA was synthesized using a T7-(dT)24 first strand primer (Affymetrix, Inc., Santa Clara Calif.) and the SUPERSCRIPT CHOICE system (Invitrogen) according to the manufacturer's instructions. The final cDNA was extracted with an equal volume of 25:24:1 phenol:chloroform:isoamyl alcohol using a PHASE LOCK GEL insert (Brinkman, Inc., Westbury N.Y.). The aqueous phase was collected and cDNA was precipitated using 0.5 volumes of 7.5 M ammonium acetate and 2.5 volumes of ethanol. Alternatively, cDNA was purified using the GENECHIP sample cleanup module (Affymetrix) according to the manufacturer's instructions.
# Biotin-labeled cRNA was synthesized from the cDNA in an in vitro […] (IVT) reaction using a BIOARRAY HighYield RNA transcript labeling kit (Enzo Diagnostics, Inc., Farmingdale N.Y.) according to the manufacturer's instructions. Final labeled product was purified and fragmented using the GENECHIP sample cleanup module (Affymetrix) according to the manufacturer's instructions.
# Hybridization cocktail was prepared by bringing […] probe to […] in 1× hybridization buffer (100 mM MES, 1 M [Na^+], 20 mM EDTA, 0.01% Tween 20), 100 µg/ml herring sperm DNA, 500 µg/ml acetylated BSA, 0.03 nM contol oligo B2 (Affymetrix), and 1×GENECHIP eukaryotic hybridization control (Affymetrix). The cocktail was sequentially incubated at 99° C. for 5 minutes and 45° C. for 5 minutes, and then centrifuged for 5 minutes. The Human Genome U133A array (Affymetrix) was brought to room temperature and then prehybridized with 1× hybridization buffer at 45° C. for 10 minutes with rotation. The buffer was then replaced with […] hybridization cocktail and the array was hybridized for 16 hours at 45° C. at 60 rpm with counter balance. Following hybridization, arrays were washed once with 6×SSPE, 0.1% Tween 20, and then washed and stained using R-phycoerythrin-conjugated streptavidin (Molecular Probes, Eugene Oreg.), goat anti-streptavidin antibody (Vector Laboratories, Burlingame Calif.), and a GENECHIP Fluidics Station 400 instrument (Affymetrix) according to the manufacturer's micro_1v1 protocol (Affymetrix). Arrays were analyzed using a GENEARRAY scanner (Affymetrix) and Microarray Suite software (Affymetrix).
# The Human Genome U133A array (Affymetrix) represents all sequences in the Human Unigene database build 133 (National Center for Biotechnology Information, Bethesda Md.), including approximately 14,500 well-characterized human genes.
# RNA quality was monitored by capillary electrophoresis (Agilent Bioanalyzer). Hybridization cocktails were prepared as described (Affymetrix), and hybridized to Affymetrix human U133A arrays containing 22,283 probe sets. Array performance was analyzed with Affymetrix MicroArray Suite (MAS) software and individual probe sets were assigned “present”, “marginal, and “absent” calls according to software defaults. […]
# [6] = test system: erythropoietin-resistant anemia; conditions: Salvarani et al. (1996); Goch et al. (1995); cited from earlier work
# EPO production = assay: Secreted EPO (ELISA) in Hep3B cells treated with IL-6; format: cell-based; conditions: 10 ng/ml IL-6, absence of compound
# Experimental: Secreted EPO levels were determined using a commercially available ELISA kit (R&D Systems, catalog no. DEP00). […] As shown in FIGS. 27A and 27B, Hep3B cells treated with IL-6 increased EPO expression slightly above that in non-treated cells. Specifically, EPO levels in control cells was approximately 20 mIU/ml, while that in cells treated with 10 ng/ml IL-6 was approximately 50 mIU/ml.
compound,measurement,setting,value
"O=C(O)CNC(=O)c1ncc2cc(Sc3ccccc3)ccc2c1O [C, [(4-Hydroxy-7-phenylsulfanyl-isoquinoline-3-carbonyl)-amino]-acetic acid]",NRAMP2 mRNA expression in small intestine,NRAMP2,increasing expression of NRAMP2 in intestine
same,induction of cell surface E-selectin expression,E-selectin [1]; then 1 ng/ml TNF-α or 1 ng/ml IL-1β for 4 hours,inhibited the induction of cell surface E-selectin expression
same,cell surface E-selectin expression,"E-selectin [1]; then TNF-α, IL-1β and IFN-γ, 1 ng/ml each, 4 hours",decreased E-selectin expression
same,inhibition of TNF-α induced VCAM-1 expression,VCAM-1 [2],does-dependent inhibition of TNF-α induced VCAM-1 expression
same,inhibition of IL-1β induced E-selectin expression,E-selectin [3],dose-dependent inhibition of IL-1β induced E-selectin expression
same,inhibition of TNF-α induced E-selectin expression,E-selectin [4],dose-dependent inhibition of TNF-α induced VCAM and E-selectin expression
same,inhibition of IL-1β induced VCAM-1 expression,VCAM-1 [5],does-dependent inhibition of IL-1β induced VCAM-1 expression
"COc1ccc(CCN(CCC(=O)NO)S(=O)(=O)c2ccc(NC(=O)N(Cc3ccccc3)Cc3ccccc3)cc2)cc1 [Compound D, 3-{[4-(3,3-Dibenzyl-ureido)-benzenesulfonyl]-[2-(4-methoxy-phenyl)-ethyl]-amino}-N-hydroxy-propionamide]","Ceruloplasmin (CP) fold-increase in mRNA levels above control, first data point",Ceruloplasmin (CP),2.06 fold
same,"Ceruloplasmin (CP) fold-increase in mRNA levels above control, second data point",Ceruloplasmin (CP),2.387 fold
CC(=O)N(O)CCCCCNC(=O)CCC(=O)N(O)CCCCCNC(=O)CCC(=O)N(O)CCCCCN [desferrioxamine],"efficacy in erythropoietin-resistant anemia, e.g., anemia of chronic disease",[6],some efficacy
"IL-6: cytokine added to Hep3B cells, alone or with compound A or compound B [reference compound]",EPO levels,EPO production,approximately 50 mIU/ml
